Common to all, as to format: in vivo, Swiss-Webster mice
The test system of experiment [1] is total white blood cell (WBC). As to the kind of experiment: Total white blood cells by complete blood count on day 8, dosing day 1, 3, 5. The settings on record: mice, oral gavage, measured on day 8.
The test system of the next experiment is lymphocytes. As to the kind of experiment: Lymphocytes by complete blood count on day 8, dosing day 1, 3, 5. The settings on record: mice, oral gavage, 6 mg/kg on day 1, day 3 and day 5, measured on day 8. As for the experimental part:
(§1) To examine the effect of compounds and methods of the present invention on increasing white blood cells, the following studies were performed. In one series of experiments, male Swiss-Webster mice were administered various compounds of the present invention via oral gavage using a ball-tipped gavage needle. […] Animals were dosed once daily for 3 or 4 days. Six hours after the final dosing, 200 μl blood samples were collected and total white blood cell, neutrophil, and lymphocyte levels were measured by complete blood count (CBC) using a CellDyn cell analyzer (Abbott Laboratories).
(§2) In another series of experiments, male Swiss-Webster mice were administered various compounds (see Table 7 and Table 8) of the present invention via oral gavage using a ball-tipped gavage needle. […] Total WBC, neutrophil, lymphocyte, and monocyte levels were measured in mice as described above on day 8 following administration of compound on day 1, day 3, and day 5.

The next experiment has as its system monocytes. As to the kind of experiment: Monocytes by complete blood count on day 8, dosing day 1, 3, 5. The settings on record: mice, oral gavage, 6 mg/kg on day 1, day 3 and day 5; measured on day 8.
For the next experiment, the system named is neutrophils. In words: Neutrophils by complete blood count on day 8, dosing day 1, 3, 5. The settings on record: mice, oral gavage, 6 mg/kg on day 1, day 3 and day 5, measured on day 8.
The test system of experiment [2] is total white blood cell (WBC). As to the kind of experiment: Total white blood cells by complete blood count on day 8, dosing day 1, 3, 5. The settings on record: Mus musculus, 192 h, mice, oral gavage, measured on day 8, read-out: Total WBC % Increase Over Control; for change in vivo at 200 mg/kg: 200 mg/kg on day 1, day 3 and day 5; for change in vivo at 20 mg/kg: 20 mg/kg on day 1, day 3 and day 5; for change in vivo at 100 mg/kg: 100 mg/kg on day 1, day 3 and day 5. As for the experimental part:
as §1, §2

Setting [3] is: Mus musculus, 192 h, 6 mg/kg on day 1, day 3 and day 5, read-out: Total WBC % Increase Over Control.
[4] abbreviates: 6 mg/kg on day 1, day 3 and day 5.
Where [5] appears, read: 200 mg/kg on day 1, day 3 and day 5.
The mark [6] stands for this setting: 20 mg/kg on day 1, day 3 and day 5.
Where [7] appears, read: 100 mg/kg on day 1, day 3 and day 5.
The mark [8] stands for this setting: 60 mg/kg on day 1, day 3 and day 5.

Turning to `N#Cc1nc(C(=O)NCC(=O)O)c(O)c2sccc12` [Compound AA, [(4-Cyano-7-hydroxy-thieno[3,2-c]pyridine-6-carbonyl)-amino]-acetic acid], the change in vivo at 2 mg/kg in experiment [1] (Mus musculus, 192 h, 2 mg/kg on day 1, day 3 and day 5, read-out: Total WBC % Increase Over Control) is 20%. In addition, the “Total WBC” value in experiment [1] (2 mg/kg on day 1, day 3 and day 5) is recorded as 7.1 10^3 cells/μl.

Regarding `O=C(O)CNC(=O)c1ncc2c(Oc3ccccc3)cccc2c1O` [Compound AB, [(4-Hydroxy-8-phenoxy-isoquinoline-3-carbonyl)-amino]-acetic acid], the change in vivo at 6 mg/kg with lymphocytes (Mus musculus, Lymphocyte, 192 h, read-out: Lymphocytes % Increase Over Control) stood at 42%; in experiment [1] (setting [3]), 78%; with neutrophils (Mus musculus, Neutrophil, 192 h, read-out: Neutrophils % Increase Over Control), 398%. The Lymphocytes in the experiment on lymphocytes is 6.8 10^3 cells/μl. The Monocytes with monocytes is 0.2 10^3 cells/μl. Further, the “Total WBC” value in experiment [1] (setting [4]) is listed as 9.8 10^3 cells/μl. Further, the Neutrophils in the experiment on neutrophils is 2.8 10^3 cells/μl.

With `N#Cc1nc(C(=O)NCC(=O)O)c(O)c2cccc(Oc3ccccc3)c12` [Compound AD, [(1-Cyano-4-hydroxy-8-phenoxy-isoquinoline-3-carbonyl)-amino]-acetic acid], the change in vivo at 200 mg/kg in experiment [2] stood at 10%. In addition, the “Total WBC” value in experiment [1] (setting [5]) is 7.6 10^3 cells/μl.

With `N#Cc1nc(C(=O)NCC(=O)O)c(O)c2cccc(Oc3ccc(F)cc3)c12` [Compound AF, {[1-Cyano-8-(4-fluoro-phenoxy)-4-hydroxy-isoquinoline-3-carbonyl]-amino}-acetic acid], in experiment [2], the change in vivo at 200 mg/kg came to 35%. In experiment [1] (setting [5]), the “Total WBC” value was 8.2 10^3 cells/μl.

As to `N#Cc1nc(C(=O)NCC(=O)O)c(O)c2cc(Oc3ccccc3)ccc12` [Compound AG, [(1-Cyano-4-hydroxy-6-phenoxy-isoquinoline-3-carbonyl)-amino]-acetic acid], the change in vivo at 20 mg/kg in experiment [2] was 25%. Further, in experiment [1] (setting [6]), the “Total WBC” value is recorded as 7.6 10^3 cells/μl.

For `N#Cc1nc(C(=O)NCC(=O)O)c(O)c2c(Oc3ccccc3)cccc12` [Compound AH, [(1-Cyano-4-hydroxy-5-phenoxy-isoquinoline-3-carbonyl)-amino]-acetic acid], the change in vivo at 200 mg/kg in experiment [2] worked out at 123%. Also, the “Total WBC” value in experiment [1] (setting [5]) is 9.4 10^3 cells/μl.

Regarding `COc1ccc(Cn2cc(Br)c3c(O)c(C(=O)NCC(=O)O)nc(C#N)c32)cc1` [Compound AJ, {[3-Bromo-7-cyano-4-hydroxy-1-(4-methoxy-benzyl)-1H-pyrrolo[2,3-c]pyridine-5-carbonyl]-amino}-acetic acid], in experiment [2], the change in vivo at 200 mg/kg came out at 237%. The “Total WBC” value in experiment [1] (setting [5]) is on record as 21.5 10^3 cells/μl.

With `COc1ccc(Cn2c(Cl)c(Cl)c3c(O)c(C(=O)NCC(=O)O)nc(C#N)c32)cc1` [Compound AK, {[2,3-Dichloro-7-cyano-4-hydroxy-1-(4-methoxy-benzyl)-1H-pyrrolo[2,3-c]pyridine-5-carbonyl]-amino}-acetic acid], in experiment [2], the change in vivo at 200 mg/kg stood at 105%. Also, the “Total WBC” value in experiment [1] (setting [5]) was 16.8 10^3 cells/μl.

Turning to `COc1ccc(Cn2cc(Cl)c3c(O)c(C(=O)NCC(=O)O)nc(C#N)c32)cc1` [Compound AM, {[3-Chloro-7-cyano-4-hydroxy-1-(4-methoxy-benzyl)-1H-pyrrolo[2,3-c]pyridine-5-carbonyl]-amino}-acetic acid], the change in vivo at 200 mg/kg in experiment [2] turned out to be 264%. In addition, the “Total WBC” value in experiment [1] (setting [5]) is 23.3 10^3 cells/μl.

Consider `N#Cc1nc(C(=O)NCC(=O)O)c(O)c2c(Cl)cn(Cc3ccccc3F)c12` [Compound AN, {[3-Chloro-7-cyano-1-(2-fluoro-benzyl)-4-hydroxy-1H-pyrrolo[2,3-c]pyridine-5-carbonyl]-amino}-acetic acid], for which the change in vivo at 200 mg/kg in experiment [2] came to 179%. Further, the “Total WBC” value in experiment [1] (setting [5]) is listed as 23.2 10^3 cells/μl.

Regarding `CC(C)CCn1cc(Cl)c2c(O)c(C(=O)NCC(=O)O)nc(C#N)c21` [Compound AO, {[3-Chloro-7-cyano-4-hydroxy-1-(3-methyl-butyl)-1H-pyrrolo[2,3-c]pyridine-5-carbonyl]-amino}-acetic acid], the change in vivo at 100 mg/kg in experiment [2] was determined as 47%. For the same molecule, the “Total WBC” value in experiment [1] (setting [7]) is 10.5 10^3 cells/μl.

As for `N#Cc1nc(C(=O)NCC(=O)O)c(O)c2c(Cl)c(Cl)n(Cc3ccc4ccccc4c3)c12` [Compound AP, [(2,3-Dichloro-7-cyano-4-hydroxy-1-naphthalen-2-ylmethyl-1H-pyrrolo[2,3-c]pyridine-5-carbonyl)-amino]-acetic acid], the change in vivo at 100 mg/kg in experiment [2] came to 88%. Further, the “Total WBC” value in experiment [1] (setting [7]) is reported as 10.8 10^3 cells/μl.

`N#Cc1nc(C(=O)NCC(=O)O)c(O)c2cc(C(F)(F)F)n(Cc3ccccc3F)c12` [Compound AQ, {[7-Cyano-1-(2-fluoro-benzyl)-4-hydroxy-2-trifluoromethyl-1H-pyrrolo[2,3-c]pyridine-5-carbonyl]-amino}-acetic acid]: in experiment [2], the change in vivo at 20 mg/kg is 56%. Further, the “Total WBC” value in experiment [1] (setting [6]) is 9.6 10^3 cells/μl.

`N#Cc1nc(C(=O)NCC(=O)O)c(O)c2ccn(Cc3ccccc3)c12` [Compound AR, [(1-Benzyl-7-cyano-4-hydroxy-1H-pyrrolo[2,3-c]pyridine-5-carbonyl)-amino]-acetic acid]: the change in vivo at 100 mg/kg in experiment [2] turned out to be 71%. The “Total WBC” value in experiment [1] (setting [7]) is listed as 9.5 10^3 cells/μl.

As to `N#Cc1nc(C(=O)NCC(=O)O)c(O)c2c(Cl)c(Cl)n(Cc3ccc(-c4ccccc4)cc3)c12` [Compound AV, [(1-Biphenyl-4-ylmethyl-2,3-dichloro-7-cyano-4-hydroxy-1H-pyrrolo[2,3-c]pyridine-5-carbonyl)-amino]-acetic acid], the change in vivo at 100 mg/kg in experiment [2] came to 137%. Besides, the “Total WBC” value in experiment [1] (setting [7]) is on record as 15.2 10^3 cells/μl.

For `CC(C)Oc1ccc(Cn2c(Cl)c(Cl)c3c(O)c(C(=O)NCC(=O)O)nc(C#N)c32)cc1` [Compound AX, {[2,3-Dichloro-7-cyano-4-hydroxy-1-(4-isopropoxy-benzyl)-1H-pyrrolo[2,3-c]pyridine-5-carbonyl]-amino}-acetic acid], the change in vivo at 100 mg/kg in experiment [2] came to 81%. In addition, the “Total WBC” value in experiment [1] (setting [7]) is 12.8 10^3 cells/μl.

Take `CC(C)Oc1ccc(CN2C=CC3C(O)=C(C(=O)NCC(=O)O)N=C(C#N)C32)cc1` (stereo not shown) [Compound AZ, {[7-Cyano-4-hydroxy-1-(4-isopropoxy-benzyl)-3a,7a-dihydro-1H-pyrrolo[2,3-c]pyridine-5-carbonyl]-amino}-acetic acid]: the change in vivo at 60 mg/kg in experiment [2] (setting [8]) was 79%. Also, the “Total WBC” value in experiment [1] (setting [8]) is 11.6 10^3 cells/μl.

For `N#Cc1nc(C(=O)NCC(=O)O)c(O)c2c(Oc3cccc(Cl)c3)cccc12` [Compound BB, {[5-(3-Chloro-phenoxy)-1-cyano-4-hydroxy-isoquinoline-3-carbonyl]-amino}-acetic acid], the change in vivo at 200 mg/kg in experiment [2] was found to be 227%. Further, the “Total WBC” value in experiment [1] (setting [5]) is listed as 20.1 10^3 cells/μl.

As for `CC(C)Oc1ccc(Cn2cc(Cl)c3c(O)c(C(=O)NCC(=O)O)nc(C#N)c32)cc1` [Compound BC, {[3-Chloro-7-cyano-4-hydroxy-1-(4-isopropoxy-benzyl)-1H-pyrrolo[2,3-c]pyridine-5-carbonyl]-amino}-acetic acid], the change in vivo at 100 mg/kg in experiment [2] stood at 148%. The “Total WBC” value in experiment [1] (setting [7]) is 15.9 10^3 cells/μl.

As for `CC(C)Oc1ccc(Cn2c(Cl)c(Cl)c3c(O)c(C(=O)N[C@@H](C)C(=O)O)nc(C#N)c32)cc1` [Compound BD, (S)-2-{[2,3-Dichloro-7-cyano-4-hydroxy-1-(4-isopropoxy-benzyl)-1H-pyrrolo[2,3-c]pyridine-5-carbonyl]-amino}-propionic acid], the change in vivo at 200 mg/kg in experiment [2] turned out to be 93%. The “Total WBC” value in experiment [1] (setting [5]) was 14.1 10^3 cells/μl.

For `O=C(O)CNC(=O)c1ncc2cc(Oc3ccc(F)cc3)ccc2c1O` [Compound U, {[7-(4-Fluoro-phenoxy)-4-hydroxy-isoquinoline-3-carbonyl]-amino}-acetic acid], the change in vivo at 6 mg/kg in experiment [1] (setting [3]) is 6%. Further, in experiment [1] (setting [4]), the “Total WBC” value is 8.3 10^3 cells/μl.

Consider `O=C(O)CNC(=O)c1ncc2cc(Oc3ccc(F)c(Cl)c3)ccc2c1O` [Compound W, {[7-(3-Chloro-4-fluoro-phenoxy)-4-hydroxy-isoquinoline-3-carbonyl]-amino}-acetic acid], for which the change in vivo at 200 mg/kg in experiment [2] was 80%. Further, the “Total WBC” value in experiment [1] (setting [5]) is 8.4 10^3 cells/μl.

For the origin of these results see patent US20110039879A1, “METHODS FOR INCREASING WHITE BLOOD CELLS” (FibroGen ,Inc., priority 2007, published 2011).
